Measured values taken from paper PMC7684578, “Isopedopeptins A–H: Cationic Cyclic Lipodepsipeptides from Pedobacter cryoconitis UP508 Targeting WHO Top-Priority Carbapenem-Resistant Bacteria” (ACS Chemical Biology, 2020).
Starred links: 1 amine or outer side, 2 acyl side, 3 side chain; linkers in the order of their positions; H or OH if unused. Positions of bridges follow the written chain, without caps; N, C: chain ends. Non-standard residues stand in square brackets, D forms with d. Residues, ends and D or L forms follow the SMILES beside them. X4 = CC(C)CCC=CCCC[C@H](CC(=O)[*:1])O[*:2]; X6 = CC(C)CCCCC=CC[C@H](CC(=O)[*:1])O[*:2]; X5 = CC(C)CCCCCCC[C@H](CC(=O)[*:1])O[*:2]; X3 = CC(C)CCCCC[C@H](CC(=O)[*:1])O[*:2]; X7 = CCCCCCC=CC[C@H](CC(=O)[*:1])O[*:2]; X2 = CCCCCCC[C@H](CC(=O)[*:1])O[*:2]; Val(3-OH) = CC(C)(O)[C@H](N)C(=O)O; X1 = C/C=C(/N[*:1])C(=O)[*:2]; Dab = NCC[C@H](N)C(=O)O; Dap = NC[C@H](N)C(=O)O

Test: in vitro
Format: cell-based
Settings: human, pH 7.4, Hemolysis (%)
Description: positive control (Bortezomib) SI of <5%. The half maximal inhibitory concentration (IC50) was determined from log concentration-effect curves using non-linear regression analysis.
Frequency of resistance (FoR). For the determination of the FoR, the MIC of compound 2 was first evaluated on solid MH-agar medium prepared in 35 mm diameter plates. Each plate contained 4 mL agar with the appropriate amount of compound. Bacterial cultures were grown and prepared as described for the MIC assay. 13 µL of bacterial culture diluted to 0.5 MacFarland was inoculated into 1 mL 0.9% NaCl resulting in ~2 × 10^6 CFU/mL. 5 µL of this bacterial suspension was spotted onto the surface of each agar plate (~10^4 CFU/spot). Plates were sealed and incubated at 37°C for 18–20 hours. Agar MIC was recorded according to CLSI guidelines as the lowest concentration of […]
faint haze caused by the inoculum. Then 9 cm plates were prepared with 25 mL MHII agar medium containing 4 × or 8 × solid MIC concentrations of test compounds and seeded with 100 µL of a bacterial preparation, concentrated by centrifugation from overnight cultures and resuspended in 0.9% NaCl, corresponding to 108 CFU and 109 CFU per plate, and spread on the agar using 4–5 glass beads of 4 mm diameter. Since CFU were evaluated using the McFarland turbidity standard, the exact CFU number plated was evaluated by plating of serial dilutions of each inoculum preparation on MHII agar plates. Plates were incubated at 37°C and colonies were counted at 24 h and 48 h post-plating. The frequencies of resistance were then calculated by counting the number of validated resistant colonies growing on antibiotic preparations divided by the evaluated number of CFU in the inoculum.
Hemolysis assay. Compounds were evaluated for hemolytic activity using red blood cells from heparinized human blood. Red blood cells (RBC) were washed three times in Tyrode buffer (130 mM NaCl, 4 mM KCl, 2.8 mM NaOAc, 1 mM MgCl2, 10 mM HEPES, 10 mM glucose, 1 mM CaCl2, adjusted to pH 7.4) and resuspended in the same buffer. Final concentrations in the hemolysis assay were: 100 µM compound, 1% DMSO, and 50% RBC, assayed in a 200 µL volume in a microtiter plate. The mixture was incubated at 37 °C for 45 min with shaking (250 rpm). After incubation, RBCs were removed by centrifugation (1000 × g for 10 min), 100 µL clear plasma was transferred to a fresh microtiter plate, and the amount of hemoglobin measured using a spectrophotometer at 540 nm. The […]
complete lysis control contained 2% Triton X-100 (in Tyrode buffer) instead of compound; the negative control contained Tyrode buffer but no compound. Percent hemolysis was calculated as:
[Abs compound] - [Abs negative control] / [Abs complete lysis control] - [Abs negative control] ×
100. Values greater than 1% hemolysis at 100 µM were regarded as a red flag.
Bacterial membrane permeabilization assay. Liposomes were manufactured and permeabilization assayed as described previously.8 Briefly, dry lipid films of E. coli polar lipid extract were formed on round-bottom flask walls. This was achieved by dissolving lipids in chloroform and evaporating the solvent under agitation and nitrogen gas flow, followed by incubation in vacuum chamber. Lipid films were re-suspended by 30 min stirring (E. coli) at 55°C in an aqueous solution of 100 mM 5(6)-carboxyfluorescein in 10 mM Tris buffer (set to pH 7.4 at 37°C). Suspensions were subjected to repeated extrusion through a 100 nm pore size polycarbonate membrane in order to reduce multilamellar structures and polydispersity. Un-trapped carboxyfluorescein was removed by gel filtration. Membrane permeability was measured by monitoring carboxyfluorescein efflux from the liposomes to the external low concentration environment, resulting in loss of self-quenching and an increased fluorescence signal. The 96-well plates were prepared with a 2-fold serial dilution of the samples in Tris buffer, as well as negative controls (background) and 0.16% Triton X-100 (maximum […]
leakage). […]

Compared with `C/C=C1/NC(=O)[C@H](CCN)NC(=O)[C@H](CC(C)C)NC(=O)[C@H](CN)NC(=O)C[C@@H](CCCCCC(C)C)OC(=O)[C@H](CC(=O)O)NC(=O)[C@H](C(C)(C)O)NC(=O)[C@@H](Cc2ccccc2)NC(=O)[C@H](CN)NC(=O)[C@H]([C@@H](C)O)NC1=O` [Compound 1, cyclo(3-hydroxy-9-methyldecanoyl-DAPA1-Leu-DABA-ABA-Thr-DAPA2-Phe-OHVal-Asp)] ([Dap]L[Dab][X1]T[Dap][dF][Val(3-OH)]D; linker N-C via X3), `C/C=C1/NC(=O)[C@H](CCN)NC(=O)[C@H](CC(C)C)NC(=O)[C@H](CN)NC(=O)C[C@@H](CCCCCCCC(C)C)OC(=O)[C@H](CC(=O)O)NC(=O)[C@H](C(C)(C)O)NC(=O)[C@@H](Cc2ccccc2)NC(=O)[C@H](CN)NC(=O)[C@H]([C@@H](C)O)NC1=O` [Compound 6, Isopedopeptin F] ([Dap]L[Dab][X1]T[Dap][dF][Val(3-OH)]D; linker N-C via X5) is higher in hemolysis at 45 min, 100 µM: 4.2% for the first, 27.5% for the second.

First: C/C=C1/NC(=O)[C@H](CCN)NC(=O)[C@H](CC(C)C)NC(=O)[C@H](CN)NC(=O)C[C@@H](CCCCCCC)OC(=O)[C@H](CC(=O)O)NC(=O)[C@H](C(C)(C)O)NC(=O)[C@@H](Cc2ccccc2)NC(=O)[C@H](CN)NC(=O)[C@H]([C@@H](C)O)NC1=O [Compound 2, isopedopeptin B] ([Dap]L[Dab][X1]T[Dap][dF][Val(3-OH)]D; linker N-C via X2)
Second: C/C=C1/NC(=O)[C@H](CCN)NC(=O)[C@H](CC(C)C)NC(=O)[C@H](CN)NC(=O)C[C@@H](CC=CCCCCCC)OC(=O)[C@H](CC(=O)O)NC(=O)[C@H](C(C)(C)O)NC(=O)[C@@H](Cc2ccccc2)NC(=O)[C@H](CN)NC(=O)[C@H]([C@@H](C)O)NC1=O [Compound 3, isopedopeptin C] ([Dap]L[Dab][X1]T[Dap][dF][Val(3-OH)]D; linker N-C via X7)
The hemolysis at 45 min, 100 µM of the first is lower: < 0.8% for the first, 3% for the second.

Going from `C/C=C1/NC(=O)[C@H](CCN)NC(=O)[C@H](CC(C)C)NC(=O)[C@H](CN)NC(=O)C[C@@H](CCCCCCC)OC(=O)[C@H](CC(=O)O)NC(=O)[C@H](C(C)C)NC(=O)[C@@H](Cc2ccccc2)NC(=O)[C@H](CN)NC(=O)[C@H]([C@@H](C)O)NC1=O` [Compound 4, isopedopeptin D] ([Dap]L[Dab][X1]T[Dap][dF]VD; linker N-C via X2) to `C/C=C1/NC(=O)[C@H](CCN)NC(=O)[C@H](CC(C)C)NC(=O)[C@H](CN)NC(=O)C[C@@H](CCCCCC(C)C)OC(=O)[C@H](CC(=O)O)NC(=O)[C@H](C(C)C)NC(=O)[C@@H](Cc2ccccc2)NC(=O)[C@H](CN)NC(=O)[C@H]([C@@H](C)O)NC1=O` [Compound 5, Isopedopeptin E] ([Dap]L[Dab][X1]T[Dap][dF]VD; linker N-C via X3), the hemolysis at 45 min, 100 µM falls from 9.1% to 5.2%.

First: C/C=C1/NC(=O)[C@H](CCN)NC(=O)[C@H](CC(C)C)NC(=O)[C@H](CN)NC(=O)C[C@@H](CCCC=CCCC(C)C)OC(=O)[C@H](CC(=O)O)NC(=O)[C@H](C(C)C)NC(=O)[C@@H](Cc2ccccc2)NC(=O)[C@H](CN)NC(=O)[C@H]([C@@H](C)O)NC1=O [Compound 7, Isopedopeptin G] ([Dap]L[Dab][X1]T[Dap][dF]VD; linker N-C via X4)
Second: C/C=C1/NC(=O)[C@H](CCN)NC(=O)[C@H](CC(C)C)NC(=O)[C@H](CN)NC(=O)C[C@@H](CC=CCCCCC(C)C)OC(=O)[C@H](CC(=O)O)NC(=O)[C@H](C(C)C)NC(=O)[C@@H](Cc2ccccc2)NC(=O)[C@H](CN)NC(=O)[C@H]([C@@H](C)O)NC1=O [Compound 8, Isopedopeptin H] ([Dap]L[Dab][X1]T[Dap][dF]VD; linker N-C via X6)
The hemolysis at 45 min, 100 µM of the first is lower: 14.1% for the first, 52.3% for the second.
